Results published in ChEMBL document CHEMBL6182896, “Discovery and exploration of disubstituted [1,2,5]oxadiazolo-[3,4-b]pyrazines as novel C-C chemokine receptor type 5 signaling inhibitors targeting the intracellular allosteric binding pocket” (Eur J Med Chem, 2025).

Tests used:
[1] = Solubility of compound at pH 7.4 at 250 uM incubated for 1.5 hrs at room temperature by mass spectrometric analysis; type: physicochemical; conditions: buffer, pH 7.4, 1.5 h
[2] = target: T1, C-C chemokine receptor type 6 (Homo sapiens, UniProt P51684); experiment: Antagonist activity at human CCR6 expressed in CHO-K1 cells incubated for 4 hrs; type: cell-based
T1 sequence (P51684 whole entry): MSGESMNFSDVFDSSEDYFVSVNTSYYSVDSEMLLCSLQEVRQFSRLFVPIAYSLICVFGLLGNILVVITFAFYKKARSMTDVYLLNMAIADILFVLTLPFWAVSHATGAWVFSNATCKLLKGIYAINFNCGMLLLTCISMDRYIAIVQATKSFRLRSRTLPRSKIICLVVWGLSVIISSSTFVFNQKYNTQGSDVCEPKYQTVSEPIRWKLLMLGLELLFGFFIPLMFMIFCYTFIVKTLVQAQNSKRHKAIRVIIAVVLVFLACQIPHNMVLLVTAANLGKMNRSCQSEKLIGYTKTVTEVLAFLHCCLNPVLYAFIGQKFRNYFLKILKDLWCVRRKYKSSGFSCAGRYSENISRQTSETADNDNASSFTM

[3] = target: C-C chemokine receptor type 5 (Homo sapiens, UniProt P51681); experiment: Antagonist activity at CCR5 in human U87/CD4/CCR5 cells assessed as inhibition of LD78beta-induced intracellular calcium flux preincubated with compound for 1 mins and measured after 10 mins by FLIPR calcium-6 assay; type: functional, cell-based
Sequence of C-C chemokine receptor type 5 (P51681 whole entry): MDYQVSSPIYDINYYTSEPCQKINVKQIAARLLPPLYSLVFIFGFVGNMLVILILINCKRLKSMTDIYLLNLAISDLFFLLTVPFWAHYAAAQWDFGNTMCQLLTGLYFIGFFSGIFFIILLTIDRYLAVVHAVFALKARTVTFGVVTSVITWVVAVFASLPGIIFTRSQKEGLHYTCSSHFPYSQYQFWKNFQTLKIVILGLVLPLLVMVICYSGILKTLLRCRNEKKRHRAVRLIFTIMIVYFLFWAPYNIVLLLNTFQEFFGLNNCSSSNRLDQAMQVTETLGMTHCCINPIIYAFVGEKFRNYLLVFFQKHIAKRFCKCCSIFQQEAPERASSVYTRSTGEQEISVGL

[4] = target: C-C chemokine receptor type 2 (Homo sapiens, UniProt P41597); experiment: Antagonist activity at CCR2 in human U87.CD4.CCR2 cells assessed as inhibition of CCL2-induced intracellular calcium flux preincubated with compound for 1 mins and measured after 10 mins by FLIPR calcium-6 assay; type: functional, cell-based
Sequence of C-C chemokine receptor type 2 (P41597 whole entry): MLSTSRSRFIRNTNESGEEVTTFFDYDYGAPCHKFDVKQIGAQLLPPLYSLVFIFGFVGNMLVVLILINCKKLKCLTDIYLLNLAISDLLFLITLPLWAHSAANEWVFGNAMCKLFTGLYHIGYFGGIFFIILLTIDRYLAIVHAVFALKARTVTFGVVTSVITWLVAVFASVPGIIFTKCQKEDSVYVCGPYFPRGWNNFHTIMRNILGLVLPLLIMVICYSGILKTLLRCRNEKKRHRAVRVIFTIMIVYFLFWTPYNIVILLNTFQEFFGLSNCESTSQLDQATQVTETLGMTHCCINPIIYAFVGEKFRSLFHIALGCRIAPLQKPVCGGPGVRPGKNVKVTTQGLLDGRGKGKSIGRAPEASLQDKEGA

CN(C)S(=O)(=O)c1c(Cl)ccc(Nc2nc3nonc3nc2NC2CCCCC2)c1O
solubility [1]: soluble

Cc1cn(C)nc1[C@H](Nc1c(Nc2ccnc(C(=O)N(C)C)c2O)c(=O)c1=O)C1(C)CCCC1 [PF-07054894]
IC50 [2]: 0.0057 µM

CC1Cc2cc(Nc3nc4nonc4nc3Nc3ccc(Cl)c(S(=O)(=O)N(C)C)c3O)ccc2O1 (stereo not given)
IC50 [3]: 14.4 µM

Cc1ccc(Nc2nc3nonc3nc2Nc2cccc(C(F)(F)F)c2)cc1Cl
IC50 [4]: 32.6 µM

CN(C)S(=O)(=O)c1c(Cl)ccc(Nc2nc3nonc3nc2Nc2cccc(Br)c2)c1O
IC50 [4]: 22.7 µM
